# Reference: PubChem BioAssay AID292 (DTP/NCI, 2004)
# Where “and” joins values, the source holds several entries; their conditions need not be identical. Equal values may be shown once. Inconclusive results and toxic doses are left out.
# Test system: B6C3F1 mice, ip Sarcoma M5076, median survival T/C
# Assay: NCI In Vivo Anticancer Drug Screen. Data for tumor model Sarcoma M5076 (intraperitoneal) in B6C3F1 mice
# Conditions: endpoint: median survival time, higher = longer survival
# How it was run: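 The readout is a ratio of survival in drug-treated animals to survival in animals given vehicle alone, taken in mice bearing a transplanted tumour line.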
# [1] = dose: 12.5 mg/kg/injection, schedule: Q04DX004 (ip), vehicle: saline with Tween-80
# [2] = dose: 25.0 mg/kg/injection, schedule: Q04DX004 (ip), vehicle: saline with Tween-80
# [3] = dose: 50.0 mg/kg/injection, schedule: Q04DX004 (ip), vehicle: saline with Tween-80
# [4] = dose: 100.0 mg/kg/injection, schedule: Q04DX004 (ip), vehicle: saline with Tween-80
# [5] = dose: 200.0 mg/kg/injection, schedule: Q04DX004 (ip), vehicle: saline with Tween-80
# [6] = dose: 25.0 mg/kg/injection, schedule: Q04DX004 (ip), vehicle: Klucel (hydroxypropylcellulose) (HPC)
# [7] = dose: 50.0 mg/kg/injection, schedule: Q04DX004 (ip), vehicle: Klucel (hydroxypropylcellulose) (HPC)
smiles,measurement,setting,value
CS(=O)(=O)OCCCCOS(C)(=O)=O,T/C,"dose: 6.25 mg/kg/injection, schedule: Q04DX004 (ip), vehicle: saline with Tween-80",100 % of control
same,T/C,[1],104 % of control
O=C1NC2(CCCCC2)C(=O)N1CCN(CCCl)CCCl,T/C,"dose: 0.75 mg/kg/injection, schedule: Q01DX009 (ip), vehicle: saline with Tween-80",111 % of control
same,T/C,"dose: 1.5 mg/kg/injection, schedule: Q01DX009 (ip), vehicle: saline with Tween-80",113 % of control
same,T/C,"dose: 7.2 mg/kg/injection, schedule: Q01DX009 (ip), vehicle: saline with Tween-80",154 % of control
same,T/C,"dose: 12.0 mg/kg/injection, schedule: Q01DX009 (ip), vehicle: saline with Tween-80",166 % of control and 176 % of control
same,T/C,"dose: 20.0 mg/kg/injection, schedule: Q01DX009 (ip), vehicle: saline with Tween-80",244 % of control
COc1cccc2c1[C@H]1CO[C@H]3C4C[C@H](C(=O)O)C([C@@H](C2)N13)N4C (some centres undefined),T/C,"dose: 0.62 mg/kg/injection, schedule: Q04DX004 (ip), vehicle: water",98 % of control
same,T/C,"dose: 1.25 mg/kg/injection, schedule: Q04DX004 (ip), vehicle: water",100 % of control
same,T/C,"dose: 2.5 mg/kg/injection, schedule: Q04DX004 (ip), vehicle: water",102 % of control
same,T/C,"dose: 5.0 mg/kg/injection, schedule: Q04DX004 (ip), vehicle: water",109 % of control
same,T/C,"dose: 10.0 mg/kg/injection, schedule: Q04DX004 (ip), vehicle: water",118 % of control
CC(C)CCC(=O)c1ccoc1,T/C,"dose: 0.25 mg/kg/injection, schedule: Q03HX012 (ip), vehicle: saline with Tween-80",96 % of control
same,T/C,"dose: 0.5 mg/kg/injection, schedule: Q03HX012 (ip), vehicle: saline with Tween-80",96 % of control
same,T/C,"dose: 1.0 mg/kg/injection, schedule: Q03HX012 (ip), vehicle: saline with Tween-80",90 % of control
same,T/C,"dose: 2.0 mg/kg/injection, schedule: Q03HX012 (ip), vehicle: saline with Tween-80",99 % of control
N=C(N)Sc1cc(O)ccc1O,T/C,"dose: 43.75 mg/kg/injection, schedule: Q04DX004 (ip), vehicle: saline with Tween-80",110 % of control
same,T/C,"dose: 87.5 mg/kg/injection, schedule: Q04DX004 (ip), vehicle: saline with Tween-80",109 % of control
same,T/C,"dose: 175.0 mg/kg/injection, schedule: Q04DX004 (ip), vehicle: saline with Tween-80",111 % of control
same,T/C,"dose: 350.0 mg/kg/injection, schedule: Q04DX004 (ip), vehicle: saline with Tween-80",110 % of control
COC(=O)c1cc(=O)c2c(ccc3oc(=O)ccc32)[nH]1,T/C,[1],104 % of control
same,T/C,[2],96 % of control
same,T/C,[3],92 % of control
same,T/C,[4],89 % of control
same,T/C,[5],89 % of control
O=C1CN(CCN2CC(=O)N(CN3CCOCC3)C(=O)C2)CC(=O)N1CN1CCOCC1,T/C,"dose: 50.0 mg/kg/injection, schedule: Q04DX004 (ip), vehicle: water",97 % of control
same,T/C,"dose: 100.0 mg/kg/injection, schedule: Q04DX004 (ip), vehicle: water",109 % of control
CCCCNc1ccc2nnc(C)n2n1,T/C,"dose: 25.0 mg/kg/injection, schedule: Q04DX004 (ip), vehicle: DMSO",99 % of control
same,T/C,"dose: 50.0 mg/kg/injection, schedule: Q04DX004 (ip), vehicle: DMSO",92 % of control and 100 % of control
same,T/C,"dose: 100.0 mg/kg/injection, schedule: Q04DX004 (ip), vehicle: DMSO",94 % of control and 96 % of control
same,T/C,"dose: 200.0 mg/kg/injection, schedule: Q04DX004 (ip), vehicle: DMSO",92 % of control and 101 % of control
OC1OCC(COc2ccc(Cl)cc2)OC1O (centres undefined),T/C,[3],103 % of control
same,T/C,[4],114 % of control
same,T/C,[5],93 % of control
same,T/C,"dose: 400.0 mg/kg/injection, schedule: Q04DX004 (ip), vehicle: saline with Tween-80",104 % of control
N#CCS(=O)(=O)c1cccc[n+]1[O-],T/C,[3],99 % of control
same,T/C,[4],99 % of control
same,T/C,[5],93 % of control
CCc1ccccc1N1CCN(C(=O)c2cc(OC)c(OC)c(OC)c2)CC1,T/C,[6],111 % of control
same,T/C,[7],112 % of control
same,T/C,"dose: 100.0 mg/kg/injection, schedule: Q04DX004 (ip), vehicle: Klucel (hydroxypropylcellulose) (HPC)",122 % of control
O=S(CCCl)CCCl,T/C,"dose: 6.25 mg/kg/injection, schedule: Q04DX004 (ip), vehicle: Klucel (hydroxypropylcellulose) (HPC)",102 % of control
same,T/C,"dose: 12.5 mg/kg/injection, schedule: Q04DX004 (ip), vehicle: Klucel (hydroxypropylcellulose) (HPC)",98 % of control
same,T/C,[6],98 % of control
same,T/C,[7],106 % of control
COc1cc2c(c3c1/c(=N/N)c1ccccc1n3C)C=CC(C)(C)O2,T/C,[2],108 % of control
same,T/C,[3],110 % of control
same,T/C,[4],89 % of control
same,T/C,[5],104 % of control
